Data: PubChem BioAssay (NCI)
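Here, GI50 denotes the concentration required for 50% inhibition of growth. TGI: concentration producing complete growth inhibition.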

Legend:
Experiment in all cases: DTP human tumour cell line panel, 384-well format
KM12 colon = tested on: KM12 colon
TK-10 renal = tested on: TK-10 renal
ACHN renal = tested on: ACHN renal
UO-31 renal = tested on: UO-31 renal
SF-268 CNS = tested on: SF-268 CNS
NCI-H322M lung = tested on: NCI-H322M lung
MOLT-4 leukemia = tested on: MOLT-4 leukemia
PC-3 prostate = tested on: PC-3 prostate
SK-MEL-28 melanoma = tested on: SK-MEL-28 melanoma
NCI/ADR-RES ovarian = tested on: NCI/ADR-RES ovarian
SK-MEL-5 melanoma = tested on: SK-MEL-5 melanoma
HOP-62 NSCLC = tested on: HOP-62 NSCLC
SR leukemia = tested on: SR leukemia
EKVX NSCLC = tested on: EKVX NSCLC
A549 NSCLC = tested on: A549 NSCLC
NCI-H522 lung = tested on: NCI-H522 lung
HS 578T breast = tested on: HS 578T breast
RPMI-8226 leukemia = tested on: RPMI-8226 leukemia
SW-620 colon = tested on: SW-620 colon
MDA-MB-468 breast = tested on: MDA-MB-468 breast
HOP-92 NSCLC = tested on: HOP-92 NSCLC
UACC-62 melanoma = tested on: UACC-62 melanoma
SK-MEL-2 melanoma = tested on: SK-MEL-2 melanoma
M14 melanoma = tested on: M14 melanoma
UACC-257 melanoma = tested on: UACC-257 melanoma
SNB-19 CNS = tested on: SNB-19 CNS
T-47D breast = tested on: T-47D breast
HCT-116 colon = tested on: HCT-116 colon
HCT-15 colon = tested on: HCT-15 colon
SK-OV-3 ovarian = tested on: SK-OV-3 ovarian
SF-295 CNS = tested on: SF-295 CNS
MDA-MB-435 melanoma = tested on: MDA-MB-435 melanoma
COLO 205 colon = tested on: COLO 205 colon
RXF 393 renal = tested on: RXF 393 renal
NCI-H23 lung = tested on: NCI-H23 lung
MDA-MB-231 breast = tested on: MDA-MB-231 breast
IGROV1 ovarian = tested on: IGROV1 ovarian
CCRF-CEM leukemia = tested on: CCRF-CEM leukemia
OVCAR-3 ovarian = tested on: OVCAR-3 ovarian
HT29 colon = tested on: HT29 colon
K-562 leukemia = tested on: K-562 leukemia
U251 glioblastoma = tested on: U251 glioblastoma
OVCAR-5 ovarian = tested on: OVCAR-5 ovarian
BT-549 breast = tested on: BT-549 breast
HL-60(TB) leukemia = tested on: HL-60(TB) leukemia
MALME-3M melanoma = tested on: MALME-3M melanoma
A498 renal = tested on: A498 renal
HCC-2998 colon = tested on: HCC-2998 colon
786-0 renal = tested on: 786-0 renal
NCI-H460 NSCLC = tested on: NCI-H460 NSCLC
OVCAR-8 ovarian = tested on: OVCAR-8 ovarian
LOX IMVI melanoma = tested on: LOX IMVI melanoma
CAKI-1 renal = tested on: CAKI-1 renal
NCI-H226 lung = tested on: NCI-H226 lung
SN12C renal = tested on: SN12C renal
DU-145 prostate = tested on: DU-145 prostate
MCF7 breast = tested on: MCF7 breast
SNB-75 CNS = tested on: SNB-75 CNS
SF-539 CNS = tested on: SF-539 CNS
OVCAR-4 ovarian = tested on: OVCAR-4 ovarian

## CC(C)(C)C[C@H]1N[C@@H](C(=O)NC2CCC(O)CC2)[C@H](c2cccc(Cl)c2F)[C@@]12C(=O)Nc1cc(Cl)ccc12 (stereo not given in full)
KM12 colon
  GI50: 2.15 µM
  TGI: 16.2 µM
TK-10 renal
  GI50: 8.04 µM
  TGI: 20.8 µM
ACHN renal
  GI50: 0.218 µM
  TGI: 2.53 µM
UO-31 renal
  GI50: 0.461 µM
  TGI: 2.52 µM
SF-268 CNS
  GI50: 13.6 µM
  TGI: 26.5 µM
NCI-H322M lung
  GI50: 17.2 µM
  TGI: 31.1 µM
MOLT-4 leukemia
  GI50: 0.0487 µM
  TGI: 0.152 µM
PC-3 prostate
  GI50: 7.04 µM
  TGI: 18.7 µM
SK-MEL-28 melanoma
  GI50: 7.87 µM
  TGI: 20.5 µM
NCI/ADR-RES ovarian
  GI50: 17.5 µM
  TGI: 31.4 µM
SK-MEL-5 melanoma
  GI50: 2.57 µM
  TGI: 13.1 µM
HOP-62 NSCLC
  GI50: 14.7 µM
  TGI: 28 µM
SR leukemia
  GI50: 0.0271 µM
  TGI: 0.0996 µM
EKVX NSCLC
  GI50: 8.97 µM
  TGI: 21.5 µM
A549 NSCLC
  GI50: 0.5 µM
  TGI: 11.9 µM
NCI-H522 lung
  GI50: 3.32 µM
  TGI: 10.1 µM
HS 578T breast
  GI50: 3.21 µM
  TGI: 11.9 µM
RPMI-8226 leukemia
  GI50: 2.35 µM
  TGI: 4.06 µM
SW-620 colon
  GI50: 14.7 µM
  TGI: 28 µM
MDA-MB-468 breast
  GI50: 2.27 µM
  TGI: 9.06 µM
HOP-92 NSCLC
  GI50: 8.42 µM
  TGI: 21.4 µM
UACC-62 melanoma
  GI50: 0.1 µM
  TGI: 1.86 µM
SK-MEL-2 melanoma
  GI50: 4.41 µM
  TGI: 14.6 µM
M14 melanoma
  GI50: 5.59 µM
  TGI: 20.3 µM
UACC-257 melanoma
  GI50: 0.556 µM
  TGI: 2.4 µM
SNB-19 CNS
  GI50: 14.1 µM
  TGI: 27.2 µM
T-47D breast
  GI50: 8.29 µM
  TGI: 20.8 µM
HCT-116 colon
  GI50: 0.304 µM
  TGI: 11.7 µM
HCT-15 colon
  GI50: 10.7 µM
  TGI: 22.9 µM
SK-OV-3 ovarian
  GI50: 14.6 µM
  TGI: 27.9 µM
SF-295 CNS
  GI50: 7.09 µM
  TGI: 19.8 µM
MDA-MB-435 melanoma
  GI50: 10.2 µM
  TGI: 23 µM
COLO 205 colon
  GI50: 11.7 µM
  TGI: 24.1 µM
RXF 393 renal
  GI50: 2.38 µM
  TGI: 8.18 µM
NCI-H23 lung
  GI50: 10 µM
  TGI: 22.5 µM
MDA-MB-231 breast
  GI50: 9.89 µM
  TGI: 22.3 µM
IGROV1 ovarian
  GI50: 6.09 µM
  TGI: 20.4 µM
CCRF-CEM leukemia
  GI50: 3.25 µM
  TGI: 10.6 µM
OVCAR-3 ovarian
  GI50: 6.74 µM
  TGI: 19.2 µM
HT29 colon
  GI50: 3.65 µM
  TGI: 13.4 µM
K-562 leukemia
  GI50: 4.1 µM
  TGI: 13.6 µM
U251 glioblastoma
  GI50: 12.2 µM
  TGI: 24.7 µM
OVCAR-5 ovarian
  GI50: 13.6 µM
  TGI: 26.5 µM
BT-549 breast
  GI50: 10.1 µM
  TGI: 23.2 µM
HL-60(TB) leukemia
  GI50: 2.21 µM
  TGI: 4.44 µM
MALME-3M melanoma
  GI50: 0.229 µM
  TGI: 5.03 µM
A498 renal
  GI50: 0.211 µM
  TGI: 3.41 µM
HCC-2998 colon
  GI50: 9.2 µM
  TGI: 21.3 µM
786-0 renal
  GI50: 8.2 µM
  TGI: 21.1 µM
NCI-H460 NSCLC
  GI50: 1.71 µM
  TGI: 14.9 µM
OVCAR-8 ovarian
  GI50: 12.5 µM
  TGI: 25.1 µM
LOX IMVI melanoma
  GI50: 0.366 µM
  TGI: 15.8 µM
CAKI-1 renal
  GI50: 0.195 µM
  TGI: 10.8 µM
NCI-H226 lung
  GI50: 0.226 µM
  TGI: 1.1 µM
SN12C renal
  GI50: 14 µM
  TGI: 27.2 µM
DU-145 prostate
  GI50: 13 µM
  TGI: 25.8 µM
MCF7 breast
  GI50: 0.318 µM
  TGI: 7.21 µM
SNB-75 CNS
  GI50: 6.62 µM
  TGI: 19.2 µM
SF-539 CNS
  GI50: 8.76 µM
  TGI: 22.3 µM
OVCAR-4 ovarian
  GI50: 7.25 µM
  TGI: 20.3 µM
